≈ marks a conversion by molar mass, not a printed value. Like-named read-outs stand apart in the source and are kept apart here.
Tests used:
Assay type in all cases: cell-based
[1] = test system: Escherichia coli ATCC9637; test: MIC broth microdilution, E. coli ATCC9637; conditions: CAMHB, 37° C., 18-20 hours, 90% growth inhibition
Experimental: [The source words this procedure for another organism and reports this organism under the same test.] (§1) Compound 7 was tested to evaluate its inhibitory effect on Staphylococcus aureus. An experiment was conducted to assess the minimum inhibitory concentration (MIC) of the compound of Formula (I).
(§2) 20.0 mg of test compound was weighed and dissolved in 0.5 mL of filtered DMSO (100%) to prepare a stock solution of 40 mg/mL concentration. Initial stock (Stock 1 and Stock 2) and working stock solution (10 concentrations) were prepared as mentioned in the table below. Final testing concentration in the micro-titer plates was starting from 1000 μg/mL in experiment plate.
(§3) The reference standards gentamicin, norfloxacin and levofloxacin were dissolved using sterile ultrapure water to prepare a stock solution of 2.0 mg/mL concentration. Working stock solution of 64 μg/mL was prepared in CAMHB by diluting 0.032 mL of 2.0 mg/mL stock solution in 0.968 mL of growth medium. The testing concentration in the micro-titer plates is 32 μg/mL.
(§4) Tester strains were sub-cultured on Soyabean Casein digest Agar (SCDA) and incubated at 37° C. for 18-20 hours in aerobic condition. After incubation, the isolated colonies were suspended in sterile saline to prepare the bacterial suspension. The bacterial suspension was adjusted to ˜1×10^8 CFU/mL.
(§5) ? titer plates (Flat bottom) were prepared as per the CLSI recommendations. The test compound and reference compounds dilution were performed in the micro titer plates. Two hundred microliters of respective growth medium were added to the wells of a 96-wellflat bottom plate well A1 to E1 for Broth control. One hundred microliters of respective growth medium were added to all the wells B3 to B11, C3 to C11, D3 to D11, E3 to E11 except B2 to E2. One hundred microliters of prepared test compound 7 working stock solution (10 concentrations) were added from A2 to A11. Two hundred microliters of reference Standard were added to B2, C2 and D2. Two hundred microliters of DMSO were to E2 as negative control. One hundred microliter was transferred from B2, C2, D2 and E2 wells B3, C3, D3 and E3 wells respectively and serially diluted up to B11, C11, D11 and E11 wells. One hundred microliter after serial dilution was discarded from Bit, C11, D11 and E11 wells, wells A12 to F12 serve as culture control.
(§6) The adjusted bacterial suspension was further diluted in CAMHB (Section 6.5), 100 μl of diluted culture was added to micro titer plate where the final concentration was 5×10^5 CFU/mL. Plates were incubated at 37° C. for 18-20 hours at aerobic conditions.
(§7) After incubation, visual readings were recorded, and the optical density was measured at 600 nm in spectrophotometer. The concentration of compound at 90% growth was inhibited compared to growth control was considered as the MIC value.

[2] = test system: Pseudomonas aeruginosa ATCC 9027; test: MIC broth microdilution, P. aeruginosa ATCC 9027; conditions: 37° C., 18-20 hours, 90% growth inhibition
Experimental: [The source words this procedure for another organism and reports this organism under the same test.] as §1, §2, §3, §4, §5, §6, §7

[3] = test system: Klebsiella pneumoniae ATCC 700603; test: MIC broth microdilution, K. pneumoniae ATCC 700603; conditions: 37° C., 18-20 hours, 90% growth inhibition
Experimental: [The source words this procedure for another organism and reports this organism under the same test.] as §1, §2, §3, §4, §5, §6, §7

[4] = test system: Gram-positive Staphylococcus aureus strains, including MRSA and GR-MRSA; test: MIC, summary over S. aureus strains; conditions: various Staphylococcus aureus strains, including MRSA and GR-MRSA (text summary of Table 1)
Experimental: as §1, §2, §3
as §4, with “CFU/mL. […]” for “CFU/mL.”
After incubation, visual readings were recorded, and the optical density was measured at 600 nm in spectrophotometer. […]

[5] = test system: Staphylococcus aureus ATCC29213; test: MIC broth microdilution, S. aureus ATCC29213; conditions: Staphylococcus aureus ATCC29213 (sensitive strain), CAMHB, 37° C., 18-20 hours, 90% growth inhibition
Experimental: as §1, §2, §3, §4, §5, §6, §7

[6] = test system: Staphylococcus aureus ATCC700699; test: MIC broth microdilution, S. aureus ATCC700699; conditions: Staphylococcus aureus ATCC700699 (resistant to Methicillin and Oxacillin), CAMHB, 37° C., 18-20 hours, 90% growth inhibition
Experimental: as §1, §2, §3, §4, §5, §6, §7

[7] = test system: Staphylococcus aureus (Gentamicin resistant) ATCC43300; test: MIC broth microdilution, S. aureus ATCC43300; conditions: Staphylococcus aureus ATCC43300 (resistant to Methicillin, Oxacillin, Gentamicin and Azithromycin), CAMHB, 37° C., 18-20 hours, 90% growth inhibition
Experimental: as §1, §2, §3, §4, §5, §6, §7

[8] = test system: Staphylococcus aureus ATCC25923; test: MIC broth microdilution, S. aureus ATCC25923; conditions: Staphylococcus aureus ATCC25923 (sensitive strain), CAMHB, 37° C., 18-20 hours, 90% growth inhibition
Experimental: as §1, §2, §3, §4, §5, §6, §7

[9] = ATCC700603, CAMHB, read-out: MIC

| Molecule | MIC ([1]; read-out: MIC) [µg/mL] | MIC ([2]; ATCC9027, CAMHB, read-out: MIC) [µg/mL] | MIC [3, 9] [µg/mL] | MIC [4] [µg/mL] | MIC ([5]; read-out: MIC) [µg/mL] | MIC ([6]; read-out: MIC) [µg/mL] | MIC ([7]; read-out: MIC) [µg/mL] | MIC ([8]; read-out: MIC) [µg/mL] | MIC [1] [µg/mL] | MIC ([2]; CAMHB) [µg/mL] | MIC ([3]; CAMHB) [µg/mL] | MIC [5] [µg/mL] | MIC [6] [µg/mL] | MIC [7] [µg/mL] | MIC [8] [µg/mL] |
| --- | --- | --- | --- | --- | --- | --- | --- | --- | --- | --- | --- | --- | --- | --- | --- |
| CCCc1nn(C)c2c(-c3c[nH]c4ccc(Cl)cc34)nc(-c3ccc(Cl)cc3)nc12 [Compound 7, 7-(5-chloro-1H-indol-3-yl)-5-(4-chlorophenyl)-1-methyl-3-propyl-1H-pyrazolo[4,3-d]pyrimidine] | > 1000 | > 1000 | > 1000 | 1 (≈ 2.29 µM) | 1 (≈ 2.29 µM) | 1 (≈ 2.29 µM) | 1 (≈ 2.29 µM) | 1 (≈ 2.29 µM) | – | – | – | – | – | – | – |
| C[C@H]1COc2c(N3CCN(C)CC3)c(F)cc3c(=O)c(C(=O)O)cn1c23 [Levofloxacin, levofloxacin] | ≤ 0.06 | 0.5 (≈ 1.38 µM) | 0.5 (≈ 1.38 µM) | – | 0.13 (≈ 0.36 µM) | 16 (≈ 44.3 µM) | 0.13 (≈ 0.36 µM) | 0.13 (≈ 0.36 µM) | – | – | – | – | – | – | – |
| CCn1cc(C(=O)O)c(=O)c2cc(F)c(N3CCNCC3)cc21 [Norfloxacin, norfloxacin] | ≤ 0.06 | 0.5 (≈ 1.57 µM) | 4 (≈ 12.5 µM) | – | 1 (≈ 3.13 µM) | > 32 | 1 (≈ 3.13 µM) | 2 (≈ 6.26 µM) | – | – | – | – | – | – | – |
| gentamicin | – | – | – | – | – | – | – | – | 1.00 | 2.00 | 16.00 | 0.50 | >32.00 | >32.00 | 0.25 |
